Patent US20180325914A1, “INCREASING STORAGE OF VITAMIN A, VITAMIN D AND/OR LIPIDS” (Salk Institute for Biological Studies, priority 2014, published 2018)

Tests used:
[1] = test system: primary HSCs; assay: Cell proliferation assay (BrdU), primary HSCs; assay type: cell-based, mouse; details: JQ1 500 nM
Description: BrdU-positive cells were counted under fluorescent microscope (Olympus, IX51).

[2] = test system: C57BL/6J mice; assay: CCl4 model of liver injury and fibrosis, preventive study; assay type: in vivo, mouse; details: JQ1 50 mg/kg IP
Procedure: The animals were terminated 72 hours after the final CCl4 injection and whole livers were collected for histological, cytological, biochemical and molecular analyses.
5 μm sections of formalin-fixed liver were stained following standard hematoxylin-eosin (H&E) and Sirius Red methods and reviewed by a pathologist who was blinded to the experimental conditions. Fibrosis was scored using the Ishak modified histological activity index (HAI) scoring system. Liver fibrosis was also quantified using Image J software on 10 non-contiguous Sirius Red stained sections. […] fibrosis was quantified using hydroxyproline assay. All images were obtained using a high-resolution Leica DFC420 digital camera mounted on an Olympus microscope equipped with ×4/0.13, ×10/0.30, ×20/0.50 and ×40/0.75 UplanFL N plan objective lenses and processed with the Leica Application Suite. Tissue hydroxyproline content was measured using a kit from Biovision (K555-100).
Liver samples were deparaffinized and rehydrated in PBS. Following antigen retrieval with the target retrieval solution (Dako, Glostrup, Denmark), endogenous peroxidase activity was blocked by incubation with 0.3% hydrogen peroxide. […]

## Cc1sc2c(c1C)C(c1ccc(Cl)cc1)=N[C@@H](CC(=O)OC(C)(C)C)c1nnc(C)n1-2 [JQ1, (S)-tert-butyl 2-(4-(4-chlorophenyl)-2,3,9-trimethyl-6H-thieno[3,2-f][1,2,4]triazolo[4,3-a][1,4]diazepin-6-yl)acetate]
[1]
  BrdU incorporation into activated HSCs: significant decrease
[2]; CCl4/JQ1 co-treated vs CCl4 mice, four weeks, Sirius red, hydroxyproline, Acta2, Ishak score
  liver fibrosis and markers of HSC activation: dramatic reduction
[2]
  CCl4-induced key fibrotic marker genes in liver (mRNA-Seq): significant suppression
